Measured values taken from patent publication US20250269043A1, “TARGETED BIFUNCTIONAL DEGRADERS” (YALE UNIVERSITY, priority 2019, published 2025).

How the values were obtained:
HepG2 cells [1] = assay: Colocalization of endocytosed MIF protein in HepG2 cells; format: cell-based, human; conditions: MIF 100 nM, MIF-GN3 200 nM; FIG. 133
Experimental: FIG. 133 illustrates that cells treated with MIF-GN3 and exogenous MIF accumulate MIF punctate in cells. […] MIF was present at a concentration of 100 nM, and MIF-GN3 was present at a concentration of 200 nM.
In order to investigate the subcellular localization of endocytosed MIF protein, colocalization studies were performed in HepG2 cells. After 12 hours of MIF-GN mediated endocytosis, several punctae displaying MIF-derived fluorescence were present in each cell.

human MIF = target: T1, human MIF (Homo sapiens, UniProt P14174); assay: Depletion of human MIF from cell culture supernatant (sandwich ELISA); format: cell-based; conditions: for removal of MIF from supernatant: after 48 hours, FIG. 129
T1 sequence (P14174 2-115 limits assumed): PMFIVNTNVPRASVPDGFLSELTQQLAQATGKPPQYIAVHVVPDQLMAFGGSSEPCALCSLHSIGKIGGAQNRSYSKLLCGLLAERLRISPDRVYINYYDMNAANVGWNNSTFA
Experimental: The ability of bifunctional MIF-binding molecules to mediate the depletion of human MIF from cell culture was investigated. In these assays, human MIF was present at a concentration of 100 nM, and a sandwich ELISA assay was utilized to measure the concentration of human MIF remaining in the cell culture supernatant. The closely related bifunctional molecules MIF-GN3, MIF-PEG2-GN3, and MIF-PEG4-GN3 were used, as well as the structurally dissimilar molecule MIF-NVS-PEG3-GN3. […] Based on the ease of its synthesis and its efficacy in this experiment, MIF-GN3 was utilized for further studies. It was next investigated whether the MIF inhibitor 3w mediates MIF depletion from cell culture supernatant. […] When cells were treated with 3w, no depletion of exogenous MIF protein was observed after 24 hours (FIG. 128B).
Bifunctional molecules containing optimized ASGPR-binding motifs are also capable of mediating MIF depletion from cell culture supernatant (FIG. 129). The MIF-binding molecule MIF-AF1, which contains only a single ASGPR-binding sugar, was not effective at mediating depletion of MIF from supernatant at any concentration tested. It is hypothesized that this is due to the compound's low predicted affinity for ASGPR (μM range). […] At a concentration of either 200 nM or 1 μM, MIF-AF2 mediated nearly 100%/o depletion of MLF from the cell culture supernatant after 48 hours. […] In contrast to these molecules, which utilize optimized synthetic ASGPR ligands, the GalNAc-based molecule MIF-GN3 mediated only 67.0% and 56.0% removal of MIF from supernatant after 48 hours at concentrations of 1 μM and 200 nM, respectively. […] At a concentration of 40 nM (4.0 pmol of molecule), MIF-AF3 mediates the removal of 83.2% of MIF present in the cell culture supernatant, or 8.32 pmol of human MIF protein. Therefore, it was concluded that under the conditions of this experiment, MIF-AF3 mediates the depletion of 2.08 molar equivalents of MIF protein.

[2] = Pharmacokinetics of MIF-GN3 in male nude mice; format: in vivo; conditions: one mpk dose
Text: The ability of MIF-GN3 to mediate the depletion of injected human MIF from serum in mice was studied. First, the pharmacokinetics of the bifunctional molecule were investigated.

HepG2 cells [3] = assay: Subcellular localization and degradation of α-DNP antibody endocytosed with DNP-GN3 (microscopy, western blotting); format: cell-based, human
Experimental: In addition, western blotting with an antibody directed to Alexa Fluor 488 was used to determine if endocytosed fluorescently labeled α-DNP antibodies are degraded in vitro. […] Signal arising from Alexa Fluor 488 in cell lysates was associated with only full-length antibody after two hours of incubation. After six hours, a lower molecular weight fluorophore-associated protein fragment between 37 and 50 kDa began to appear. An additional protein fragment with a molecular weight between 25 and 37 kDa was observed after 24 hours. […] Together with the above immunofluorescence studies showing the colocalization of α-DNP antibody-derived fluorescence with lysosomes, these studies support that α-DNP antibody degradation is mediated by lysosomal proteases. Lysosomal degradation is further consistent with a mechanism dependent on ASGPR.

[4] = Tolerability in mice (body weight, serum AST and ALT); format: in vivo
Experimental: FIGS. 93A-93C illustrate that DNP-GN3 and DNP-OH3 are not toxic to mice at all tested concentrations. FIG. 93A: mouse body weight following treatment with DNP-GN3 or DNP-OH3. Statistical differences were analyzed by T test. FIG. 93B: levels of aspartate transaminase (AST) in treated mice. Dashed lines represent the normal range. FIG. 93C: levels of alanine transaminase (ALT) in treated mice. Dashed lines represent the normal range.

HepG2 cells [5] = assay: DNP-GN3-mediated endocytosis of fluorescently labeled α-DNP antibody by adherent HepG2 cells; format: cell-based, human; conditions: six and twelve hours; FIG. 87A-87B
α-DNP antibody = assay: In vivo depletion of α-DNP antibody from serum in mice (ELISA); conditions: for serum α-DNP antibody levels compared to PBS: FIG. 94; for α-DNP antibody depleted from serum 24 hours after a single dose: vehicle control 24%
Experimental: FIG. 94 illustrates that serum levels of α-DNP antibody decrease more rapidly following repeated treatment with DNP-GN3. Serum antibody levels were measured using an ELISA assay. Each experimental group contained three mice. Statistical differences in experiments involving in vivo depletion of α-DNP antibody were assessed by repeated measures two-way ANOVA with Tukey's tests for post-hoc comparison of simple effects between each of the treatment groups and PBS.
Single doses of DNP-GN3 were also found to be efficacious at mediating α-DNP antibody depletion, albeit less effectively than daily dosing (FIG. 96). […] Therefore, it was concluded that DNP-GN3 is able to mediate the depletion of a monoclonal antibody from serum, and functions across a wide range of target protein concentrations and dosing regimens.
DNP-GN3 was also found to be efficacious in depleting polyclonal α-DNP antibody from serum collected from mice immunized with DNP-keyhole limpet haemocyanin (KLH) (FIG. 97). […] Thus, the small molecule DNP-GN3 is not restricted in function to only monoclonal mouse antibodies, but is also effective at removing polyclonal α-DNP antibodies from circulation in mice.

HepG2 cells [6] = assay: DNP-AF3-mediated α-DNP antibody endocytosis by HepG2 cells (flow cytometry); format: cell-based, human; conditions: α-DNP antibody 1 nM
Experimental: The intracellular fluorescence of cells that were incubated at 37° C. with both fluorescently labeled α-DNP antibody and DNP-AF3 for a given amount of time was examined. Cells were then washed, removed from the plate with trypsin, and subjected to flow cytometry.
It was then determined if reagents which inhibit ternary complex formation inhibit endocytosis mediated by DNP-AF3.
Next, whether inhibitors of specific endocytic pathways inhibited α-DNP antibody endocytosis was determined (FIG. 106).

| Compound | colocalization of MIF signal with LAMP2 (HepG2 cells [1]) | removal of MIF from supernatant (human MIF; 200 nM) [%] | removal of MIF from supernatant (human MIF; 1 μM) [%] | depletion of human MIF from cell culture supernatant (human MIF; human MIF 100 nM, 24 hours, FIG. 128A) | half-life in serum [2] [min] | time of maximum plasma concentration [2] [min] | colocalization of endocytosed α-DNP antibody with lysosome membrane protein LAMP2 (HepG2 cells [3]; after 12 hours, FIG. 91B) | degradation of endocytosed α-DNP antibody (western blot for Alexa Fluor 488) (HepG2 cells [3]; cell lysates, 2 to 24 hours, FIG. 92A) | differences in body weight or serum liver enzyme levels between control and treatment groups ([4]; doses up to 100 mpk, FIGS. 93A-93C) | well-tolerated dose ([4]; mice) [mpk] | intracellular fluorescence of adherent HepG2 cells (HepG2 cells [5]) | serum α-DNP antibody levels compared to PBS (α-DNP antibody; 200 μg monoclonal mouse IgG2 α-DNP antibody, daily and twice-daily 1 mpk, 21 days, nude mice) | α-DNP antibody depleted from serum 24 hours after a single dose (α-DNP antibody; 1 mpk, FIG. 96) [%] | α-DNP antibody depleted from serum 24 hours after a single dose (α-DNP antibody; 10 mpk, FIG. 96) [%] | α-DNP antibody depletion after a single dose (α-DNP antibody; 100 mpk, FIG. 96) | degradation of injected anti-DNP IgG antibodies in mouse serum (α-DNP antibody; i.p. injection, FIG. 79A) | serum α-DNP antibody levels compared to PBS (α-DNP antibody; initial antibody dose of 500 μg, daily treatment) | depletion of polyclonal α-DNP antibody from serum compared to PBS (α-DNP antibody; mice immunized with DNP-KLH, daily treatment, each time point, FIG. 97) | uptake of α-DNP antibody at low target protein concentration (HepG2 cells [6]) |
| --- | --- | --- | --- | --- | --- | --- | --- | --- | --- | --- | --- | --- | --- | --- | --- | --- | --- | --- | --- |
| CC(=O)N[C@H]1[C@H](OCCOCCOCCNC(=O)CCOCC(COCCC(=O)NCCOCCOCCO[C@@H]2O[C@H](CO)[C@H](O)[C@H](O)[C@H]2NC(C)=O)(COCCC(=O)NCCOCCOCCO[C@@H]2O[C@H](CO)[C@H](O)[C@H](O)[C@H]2NC(C)=O)NC(=O)CNC(=O)CCCOc2ccc3nc(-c4cn(-c5ccc(O)c(F)c5)nn4)ccc3c2)O[C@H](CO)[C@H](O)[C@@H]1O [MIF-GN3] | strong colocalization | 56.0 | 67.0 | effective | 25.8 | 15 |  |  |  |  |  |  |  |  |  |  |  |  |  |
| CC(=O)NC1C(OCCOCCOCCNC(=O)CCOCC(COCCC(=O)NCCOCCOCCOC2OC(CO)C(O)C(O)C2NC(C)=O)(COCCC(=O)NCCOCCOCCOC2OC(CO)C(O)C(O)C2NC(C)=O)NC(=O)CNC(=O)COCCOCCOCCNc2ccc([N+](=O)[O-])cc2[N+](=O)[O-])OC(CO)C(O)C1O (stereo not shown) [DNP-GN3] |  |  |  |  |  |  | strong colocalization | endocytosed α-DNP antibody is degraded in HepG2 cells | no significant differences | ≤ 100 | dependent on the concentration of both DNP-GN3 and α-DNP antibody | significantly reduced | 52 | 34 | Significant depletion | can induce degradation | significant decrease | significantly more polyclonal α-DNP antibody was removed | not effective |
